# Measurements as given in patent EP1399176B1, “SUBSTANTIALLY PURE GLYCOPEPTIDE ANTIBIOTICS AC-98-1; AC-98-2; AC-98-3; AC-98-4 AND AC-98-5” (Wyeth Holdings Corporation, priority 2001, dated 2002).
# Numbered stars: 1 amine (or outer) side, 2 acyl side, 3 side chain; on linkers, the order of the positions; unused ones are H or OH. Square brackets hold non-standard residues; d marks the D form. Peptide text beside a SMILES is read from it. * marks the point of attachment. ξ: configuration not given here. X1 = N=C1NCC(C(O)C(N[*:1])C(=O)[*:2])N1C1OC(CO)C(O)C(O)C1O; ξEnduracididine(βξ-OH,4'ξ) = N=C1NCC(C(O)C(N)C(=O)O)N1; X2 = OCC1OC(OC2C(CO)OC(*)C(O)C2O)C(O)C(O)C1O; ξPhe(βξ-Me) = CC(c1ccccc1)C(N)C(=O)O
# What was measured:
# Test in all cases: in vitro antibacterial activity, agar dilution method (MIC)
# Type in all cases: cell-based
# Design in all cases: unit not given here
# Conditions in all cases: Mueller-Hinton agar containing 5% sheep blood, 18 hours incubation
# [1] = tested on: Enterococcus faecalis (ID-2131)
# Procedure: (§1) The in vitro antibacterial activity of substantially pure glycopeptide antibiotics AC-98-1, AC-98-2, AC-98-3, AC-98-4, and AC-98-5 from Examples 2 and 3 is determined against a spectrum of bacteria by a standard agar dilution method. Mueller-Hinton agar containing 5% sheep blood and two-fold decreasing concentrations of substantially pure glycopeptide antibiotics AC-98-1, AC-98-2, AC-98-3, AC-98-4, and AC-98-5 from Examples 2 and 3 are poured into petri dishes. The agar surfaces are inoculated with 1 to 5 X 10^4 colony forming units of bacteria by means of a Steers replicating device. The lowest concentration of antibiotic that inhibited the growth of a bacterial strain after 18 hours incubation is recorded as the minimal inhibitory concentration for that strain. Table II. In vitro antibacterial activity of substantially pure antibiotics AC-98-1, AC-98-2, AC-98-3, AC-98-4, and AC-98-5 from Examples 2 and 3
# [2] = tested on: Pseudomonas aeruginosa (ATCC 27853)
# Procedure: as §1
# [3] = tested on: Morganella morganii (VGH 84-11)
# Procedure: as §1
# [4] = tested on: Enterococcus faecium (12202)
# Procedure: as §1
# [5] = tested on: Staphylococcus aureus (SMITH)
# Procedure: as §1
# [6] = tested on: Enterococcus faecium (ID-3953)
# Procedure: as §1
# [7] = tested on: Staphylococcus aureus (ID-2371)
# Procedure: as §1
# [8] = tested on: Enterococcus faecalis (ATCC 29212)
# Procedure: as §1
# [9] = tested on: Enterococcus faecalis (ID-1829)
# Procedure: as §1
# [10] = tested on: Enterococcus faecium (ID-3301)
# Procedure: as §1
# [11] = tested on: Staphylococcus aureus (ID-2727)
# Procedure: as §1
# [12] = tested on: Bacillus subtilis (Bacto)
# Procedure: as §1
# [13] = tested on: Staph Coagulase Neg (4615)
# Procedure: as §1
# [14] = tested on: Enterococcus faecium (ID-4133)
# Procedure: as §1
# [15] = tested on: Staphylococcus aureus (ATCC 29213)
# Procedure: as §1
# [16] = tested on: Staphylococcus aureus (ID-4379)
# Procedure: as §1
# [17] = tested on: Staph Coagulase Neg (ID-3276)
# Procedure: as §1
# [18] = tested on: Staphylococcus hemolyticus (ID-4061)
# Procedure: as §1
# [19] = tested on: Staphylococcus aureus (NEMC-89-4)
# Procedure: as §1
# [20] = tested on: Staphylococcus aureus (ID-3105)
# Procedure: as §1
# Escherichia coli (J2175) = tested on: Escherichia coli (J2175)
# Procedure: as §1
SMILES,MIC [1],MIC [2],MIC [3],MIC [4],MIC [6],MIC [7],MIC [8],MIC [9],MIC [10],MIC [12],MIC [13],other results
CC(C)CC(=O)OC1C(CO)OC(OC2C(CO)OC(Oc3ccc(CC4NC(=O)C(C(C)c5ccccc5)NC(=O)CNC(=O)C(CO)NC(=O)C(C(O)C5CNC(=N)N5C5OC(CO)C(O)C(O)C5O)NC(=O)C(C(O)C5CNC(=N)N5)NC4=O)cc3)C(O)C2O)C(O)C1O (stereo not drawn) [AC-98-5],–,>128,>128,–,–,–,–,–,–,–,–,–
"CC(c1ccccc1)C1NC(=O)CNC(=O)C(CO)NC(=O)C(C(O)C2CNC(=N)N2C2OC(CO)C(O)C(O)C2O)NC(=O)C(C(O)C2CNC(=N)N2)NC(=O)C(Cc2ccc(O)cc2)NC1=O (stereo not drawn) [AC-98-2] (cyclo(G[ξPhe(βξ-Me)]Y[ξEnduracididine(βξ-OH,4'ξ)][X1]S); configuration not given here)",>128,>128,>128,128,128,128,>128,128,>128,>128,128,–
CC(C)CC(=O)OC1C(O)C(CO)OC(OC2C(CO)OC(Oc3ccc(CC4NC(=O)C(C(C)c5ccccc5)NC(=O)CNC(=O)C(CO)NC(=O)C(C(O)C5CNC(=N)N5C5OC(CO)C(O)C(O)C5O)NC(=O)C(C(O)C5CNC(=N)N5)NC4=O)cc3)C(O)C2O)C1O (stereo not drawn) [AC-98-4],–,>128,>128,–,–,–,–,–,–,–,–,MIC (Escherichia coli (J2175)): 128

# More lines, main results first:
MIC [1],MIC [2],MIC [3],MIC [4],MIC [6],MIC [7],MIC [8],MIC [9],MIC [10],MIC [12],MIC [13],SMILES,other results
128,>128,>128,–,–,–,–,–,–,–,–,CC(C)CC(=O)OC1C(OC2C(CO)OC(Oc3ccc(CC4NC(=O)C(C(C)c5ccccc5)NC(=O)CNC(=O)C(CO)NC(=O)C(C(O)C5CNC(=N)N5C5OC(CO)C(O)C(O)C5O)NC(=O)C(C(O)C5CNC(=N)N5)NC4=O)cc3)C(O)C2O)OC(CO)C(O)C1O (stereo not drawn) [AC-98-3],–
>128,>128,>128,>128,>128,>128,>128,>128,>128,>128,>128,"CC(c1ccccc1)C1NC(=O)CNC(=O)C(CO)NC(=O)C(C(O)C2CNC(=N)N2C2OC(CO)C(O)C(O)C2O)NC(=O)C(C(O)C2CNC(=N)N2)NC(=O)C(Cc2ccc(OC3OC(CO)C(OC4OC(CO)C(O)C(O)C4O)C(O)C3O)cc2)NC1=O (stereo not drawn) [AC-98-1] (cyclo(G[ξPhe(βξ-Me)]Y(X2)[ξEnduracididine(βξ-OH,4'ξ)][X1]S); configuration not given here)",MIC [5]: 128; MIC [11]: >128; MIC [14]: 128; MIC [15]: 128; MIC [16]: 128; MIC [17]: 128; MIC [18]: 128; MIC [19]: >128; MIC [20]: 128
